{
  "source": "patent US9737509B1",
  "about": "“Antimicrobial compositions, methods of use, and methods of treatment of infections” (University of South Florida, priority 2015, dated 2017)",
  "key": {"[1]": {"tested_on": "L. donovani axenic amastigotes", "test": "L. donovani axenic amastigote proliferation, colorimetric assay", "type": "cell-based, Leishmania donovani", "settings": "for activity in the axenic amastigote L. donovani assay (in words): screening / confirmation; for IC50: Leishmania donovani, L. donovani axenic amastigotes", "method": "As part of an ongoing search for potential treatments for leishmaniasis, a screening campaign against available compounds was conducted using axenic amastigotes of Leishmania donovani, a protozoan that is known to cause visceral leishmaniasis (VL). […] Prior to taking on the development of novel analogs, we sought to synthesize an analog to confirm that the activity was readily reproducible. […] As a byproduct, compound 2a, which arose from the hydrolysis of the product amide to the corresponding carboxylic acid (not shown) was also isolated and evaluated (vide infra).\n(§1) With a source of these compounds in hand, their activity against Leishmania donovani cells was evaluated in two different assays. L. donovani axenic amastigotes were generated from promastigotes and maintained in an appropriate medium such that their proliferation could be evaluated using a colorimetric assay. Additionally, macrophages were plated into a 96-well plate and a medium containing L. donovani was added and allowed to infect the macrophage cells. Subsequent addition of the compound to be evaluated was added to the wells prior to incubation and evaluation. Finally, a counterscreen for cytotoxicity was conducted using a J774 murine mouse cell line."}, "[2]": {"test": "Counterscreen for cytotoxicity", "type": "cell-based", "settings": "mouse, J774 cells (murine macrophage cell line)", "method": "as §1"}, "[3]": {"tested_on": "L. donovani infected macrophage cells", "test": "L. donovani infected macrophage assay", "type": "cell-based", "settings": "Leishmania donovani, macrophages infected with L. donovani", "method": "as §1"}},
  "data": [
    {"smiles": "Cc1nn(-c2ccc(C(N)=O)c(N[C@H]3CC[C@H](O)CC3)c2)c2c1C(=O)CC(C)(C)C2", "note": "[Compound 1, reference compound]", "values": [
      {"measurement": "activity in the axenic amastigote L. donovani assay (in words)", "setting": "[1]", "result": "most active"}
    ]},
    {"smiles": "COCCCNc1cc(-n2nc(C)c3c2CC(C)(C)CC3=O)ccc1C(N)=O", "note": "[Compound 2]", "values": [
      {"measurement": "IC50", "setting": "[2]", "result": 3.52, "unit": "µg/mL"},
      {"measurement": "IC50", "setting": "[1]", "result": 0.646, "unit": "µg/mL"},
      {"measurement": "activity in the axenic amastigote L. donovani assay (in words)", "setting": "[1]", "result": "equally active as 1"},
      {"measurement": "IC50", "setting": "[3]", "result": 0.879, "unit": "µg/mL"}
    ]},
    {"smiles": "COCCCNc1cc(-n2nc(C)c3c2CN(Cc2ccccc2)CC3=O)ccc1C(N)=O", "note": "[Compound 3a]", "values": [
      {"measurement": "IC50", "setting": "[2]", "result": "> 50", "unit": "µg/mL"},
      {"measurement": "IC50", "setting": "[1]", "result": 2.29, "unit": "µg/mL"},
      {"measurement": "IC50", "setting": "[3]", "result": 6.33, "unit": "µg/mL"}
    ]},
    {"smiles": "COCCCNc1cc(-n2nc(C)c3c2CNCC3=O)ccc1C(N)=O", "note": "[Compound 3b]", "values": [
      {"measurement": "IC50", "setting": "[2]", "result": "> 50", "unit": "µg/mL"},
      {"measurement": "IC50", "setting": "[1]", "result": 3.9, "unit": "µg/mL"},
      {"measurement": "IC50", "setting": "[3]", "result": "> 10", "unit": "µg/mL"}
    ]},
    {"smiles": "COCCCNc1cc(-n2nc(C)c3c2CN(C(C)=O)CC3=O)ccc1C(N)=O", "note": "[Compound 3c]", "values": [
      {"measurement": "IC50", "setting": "[2]", "result": "> 50", "unit": "µg/mL"},
      {"measurement": "IC50", "setting": "[1]", "result": 13.9, "unit": "µg/mL"},
      {"measurement": "IC50", "setting": "[3]", "result": 1.06, "unit": "µg/mL"}
    ]},
    {"smiles": "CCC(=O)N1CC(=O)c2c(C)nn(-c3ccc(C(N)=O)c(NCCCOC)c3)c2C1", "note": "[Compound 3d]", "values": [
      {"measurement": "IC50", "setting": "[2]", "result": "> 50", "unit": "µg/mL"},
      {"measurement": "IC50", "setting": "[1]", "result": 6.42, "unit": "µg/mL"},
      {"measurement": "IC50", "setting": "[3]", "result": 3.54, "unit": "µg/mL"}
    ]},
    {"smiles": "COCCCNc1cc(-n2nc(C)c3c2CN(C(=O)C(C)C)CC3=O)ccc1C(N)=O", "note": "[Compound 3e]", "values": [
      {"measurement": "IC50", "setting": "[2]", "result": 37.3, "unit": "µg/mL"},
      {"measurement": "IC50", "setting": "[1]", "result": 1.9, "unit": "µg/mL"},
      {"measurement": "IC50", "setting": "[3]", "result": 3.54, "unit": "µg/mL"}
    ]},
    {"smiles": "COCCCNc1cc(-n2nc(C)c3c2CN(C(=O)COC)CC3=O)ccc1C(N)=O", "note": "[Compound 3f]", "values": [
      {"measurement": "IC50", "setting": "[2]", "result": "> 50", "unit": "µg/mL"},
      {"measurement": "IC50", "setting": "[1]", "result": 4.45, "unit": "µg/mL"},
      {"measurement": "IC50", "setting": "[3]", "result": 3.57, "unit": "µg/mL"}
    ]},
    {"smiles": "COCCCNc1cc(-n2nc(C)c3c2CN(C(=O)C2CCCC2)CC3=O)ccc1C(N)=O", "note": "[Compound 3g]", "values": [
      {"measurement": "IC50", "setting": "[2]", "result": "> 50", "unit": "µg/mL"},
      {"measurement": "IC50", "setting": "[1]", "result": 2.99, "unit": "µg/mL"},
      {"measurement": "IC50", "setting": "[3]", "result": 1.52, "unit": "µg/mL"}
    ]},
    {"smiles": "COCCCNc1cc(-n2nc(C)c3c2CN(C(=O)c2ccc(C)cc2)CC3=O)ccc1C(N)=O", "note": "[Compound 3h]", "values": [
      {"measurement": "IC50", "setting": "[2]", "result": 26.3, "unit": "µg/mL"},
      {"measurement": "IC50", "setting": "[1]", "result": 2.6, "unit": "µg/mL"},
      {"measurement": "IC50", "setting": "[3]", "result": 1.75, "unit": "µg/mL"}
    ]},
    {"smiles": "COCCCNc1cc(-n2nc(C)c3c2CN(S(C)(=O)=O)CC3=O)ccc1C(N)=O", "note": "[Compound 3i]", "values": [
      {"measurement": "IC50", "setting": "[2]", "result": 25.5, "unit": "µg/mL"},
      {"measurement": "IC50", "setting": "[1]", "result": "> 20", "unit": "µg/mL"},
      {"measurement": "IC50", "setting": "[3]", "result": "> 5.38", "unit": "µg/mL"}
    ]},
    {"smiles": "COCCCNc1cc(-n2nc(C)c3c2CN(C(=O)NCc2ccccc2)CC3=O)ccc1C(N)=O", "note": "[Compound 3j]", "values": [
      {"measurement": "IC50", "setting": "[2]", "result": "> 50", "unit": "µg/mL"},
      {"measurement": "IC50", "setting": "[1]", "result": "> 20", "unit": "µg/mL"},
      {"measurement": "IC50", "setting": "[3]", "result": "> 10", "unit": "µg/mL"}
    ]},
    {"smiles": "COCCCNc1cc(-n2nc(C)c3c2CN(C(N)=O)CC3=O)ccc1C(N)=O", "note": "[Compound 3k]", "values": [
      {"measurement": "IC50", "setting": "[2]", "result": "> 50", "unit": "µg/mL"},
      {"measurement": "IC50", "setting": "[1]", "result": "> 20", "unit": "µg/mL"},
      {"measurement": "IC50", "setting": "[3]", "result": "> 10", "unit": "µg/mL"}
    ]},
    {"smiles": "COCCCNc1cc(NC2CC(C)(C)Cc3ncccc32)ccc1C(N)=O", "note": "(centres unmarked) [Compound 6]", "values": [
      {"measurement": "IC50", "setting": "[2]", "result": 6.75, "unit": "µg/mL"},
      {"measurement": "IC50", "setting": "[1]", "result": 2.55, "unit": "µg/mL"},
      {"measurement": "IC50", "setting": "[3]", "result": 5.38, "unit": "µg/mL"}
    ]},
    {"smiles": "Cc1nn(-c2ccc3c(N)ncnc3c2)c2c1C(=O)CC(C)(C)C2", "note": "[Compound 9c]", "values": [
      {"measurement": "IC50", "setting": "[2]", "result": "> 50", "unit": "µg/mL"},
      {"measurement": "IC50", "setting": "[1]", "result": 2.42, "unit": "µg/mL"},
      {"measurement": "IC50", "setting": "[3]", "result": 1.33, "unit": "µg/mL"}
    ]},
    {"smiles": "COCCCNc1cc(-n2nc(C)c3c2CCCC3=O)ccc1C(N)=O", "note": "[Compound 10]", "values": [
      {"measurement": "IC50", "setting": "[2]", "result": 12.6, "unit": "µg/mL"},
      {"measurement": "IC50", "setting": "[1]", "result": 2.65, "unit": "µg/mL"},
      {"measurement": "IC50", "setting": "[3]", "result": 0.65, "unit": "µg/mL"}
    ]}
  ]
}
